According to ChEMBL document CHEMBL3351763, “Design and synthesis of novel small molecule CCR2 antagonists: evaluation of 4-aminopiperidine derivatives” (Bioorg Med Chem Lett, 2014):

Assays:
[1] = molecular target: T1, C-C chemokine receptor type 2 (Homo sapiens, UniProt P41597); experiment: Displacement of [125I]CCL2 from CCR2 in human U2OS cell membranes at 1 uM by radioligand displacement assay
Target sequence in this assay (P41597 whole entry, looked up): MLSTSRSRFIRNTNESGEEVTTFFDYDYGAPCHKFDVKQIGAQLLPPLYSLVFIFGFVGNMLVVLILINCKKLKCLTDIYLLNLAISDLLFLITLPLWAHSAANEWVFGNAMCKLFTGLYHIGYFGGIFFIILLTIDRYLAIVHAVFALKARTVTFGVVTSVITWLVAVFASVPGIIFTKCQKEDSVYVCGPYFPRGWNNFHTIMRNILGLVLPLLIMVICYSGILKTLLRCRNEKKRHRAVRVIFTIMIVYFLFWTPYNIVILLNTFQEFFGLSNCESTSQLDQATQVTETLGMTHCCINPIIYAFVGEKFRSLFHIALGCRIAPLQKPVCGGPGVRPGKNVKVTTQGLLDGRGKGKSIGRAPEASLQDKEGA

[2] = molecular target: T1, C-C chemokine receptor type 2; experiment: Displacement of [125I]CCL2 from CCR2 in human U2OS cell membranes by radioligand displacement assay
Target sequence in this assay (P41597 whole entry): as the sequence (P41597 whole entry, looked up) above

| Structure (SMILES) | inhibition [1] | Ki [2] |
| --- | --- | --- |
| O=C(CNC(=O)c1cccc(C(F)(F)F)c1)NC1CCN(Cc2cn(-c3ccccc3)nn2)CC1 | 12% | – |
| O=C(CNC(=O)c1cccc(C(F)(F)F)c1)NC1CCN(Cc2ccc(Cl)cc2)CC1 | 0% | – |
| O=C(CNC(=O)c1cccc(C(F)(F)F)c1)NC1CCN(C2CCc3ccccc3C2)CC1 (stereo not given) | 24% | – |
| O=C(CNC(=O)c1cccc(C(F)(F)F)c1)NC1CCN(C2CCC(c3ccc(O)cc3)CC2)CC1 (stereo not given) | – | 139 nM |
| O=C(CNC(=O)c1cccc(C(F)(F)F)c1)NC1CCN(C2CCC(c3ccccc3)CC2)CC1 (stereo not given) | – | 74 nM |
| Cc1cccc(C2CCC(N3CCC(NC(=O)CNC(=O)c4cccc(C(F)(F)F)c4)CC3)CC2)c1 (stereo not given) | – | 270 nM |
| O=C(CNC(=O)c1cccc(C(F)(F)F)c1)NC1CCN(C2CCC(c3ccc4c(c3)OCO4)CC2)CC1 (stereo not given) | – | 90 nM |
| COc1cccc(OC)c1C1CCC(N2CCC(NC(=O)CNC(=O)c3cccc(C(F)(F)F)c3)CC2)CC1 (stereo not given) | 42% | – |
| O=C(CNC(=O)c1cccc(C(F)(F)F)c1)NC1CCN(C2CCCC(c3ccccc3)C2)CC1 (stereo not given) | 10% | – |
| Cc1ccc(C2CCC(N3CCC(NC(=O)CNC(=O)c4cccc(C(F)(F)F)c4)CC3)CC2)cc1 (stereo not given) | 38% | – |
| O=C(CNC(=O)c1cccc(C(F)(F)F)c1)NC1CCN(CCCc2ccccc2)CC1 | 6% | – |
| Cc1ccccc1C1CCC(N2CCC(NC(=O)CNC(=O)c3cccc(C(F)(F)F)c3)CC2)CC1 (stereo not given) | 26% | – |
| COc1cc(OC)cc(C2CCC(N3CCC(NC(=O)CNC(=O)c4cccc(C(F)(F)F)c4)CC3)CC2)c1 (stereo not given) | 41% | – |
| COc1cccc(C2CCC(N3CCC(NC(=O)CNC(=O)c4cccc(C(F)(F)F)c4)CC3)CC2)c1 (stereo not given) | – | 66 nM |
| O=C(NCC(=O)N1CCC(NC2CCC(c3ccccc3)CC2)CC1)c1cccc(C(F)(F)F)c1 (stereo not given) | 31% | – |
